Laboratory results as given in ChEMBL document CHEMBL4819154, “Discovery of quinuclidine modulators of cellular progranulin” (Bioorg Med Chem Lett, 2021).
Values after ≈ are worked out from the molar mass of the structure shown.

How the values were obtained:
[1] = Increase of PGRN level in mouse microglial BV-2 cell relative to control; format: functional
[2] = molecular target: Muscarinic acetylcholine receptor M3 (Homo sapiens, UniProt P20309); experiment: Antagonist activity at muscarinic M3 receptor (unknown origin)
[3] = Apparent permeability from apical to basolateral side in dog MDCK-MDR1 cells; format: ADME, cell-based, Canis lupus familiaris
[4] = Oral bioavailability in rat; format: ADME, organism-based; details: in vivo, dose 10 mg/kg
[5] = Oral bioavailability in mouse; format: ADME, organism-based; details: in vivo, dose 10 mg/kg
[6] = Intrinsic clearance in human hepatocytes; format: ADME, cell-based, Hepatocyte
[7] = Intrinsic clearance in cynomolgus monkey hepatocytes; format: ADME, cell-based, Macaca fascicularis, Hepatocyte
[8] = Protein binding in human assessed as unbound fraction; format: ADME
[9] = Aqueous solubility of compound in pH 7.4 PBS measured; format: physicochemical
[10] = Protein binding in mouse assessed as unbound fraction; format: ADME
[11] = Protein binding in rat assessed as unbound fraction; format: ADME
[12] = Protein binding in mouse brain assessed as unbound fraction; format: ADME, tissue-based
[13] = Protein binding in rat brain assessed as unbound fraction; format: ADME, tissue-based
[14] = Half life in rat hepatocytes; format: ADME, cell-based, Hepatocyte
[15] = Half life in cynomolgus monkey hepatocytes; format: ADME, cell-based, Macaca fascicularis, Hepatocyte
[16] = Half life in human hepatocytes; format: ADME, cell-based, Hepatocyte
[17] = Half life in po dosed mouse; format: ADME, organism-based; details: in vivo
[18] = Half life in po dosed rat; format: ADME, organism-based; details: in vivo
[19] = Half life in iv dosed mouse; format: ADME, organism-based; details: in vivo
[20] = Half life in iv dosed rat; format: ADME, organism-based; details: in vivo
[21] = Cmax in mouse; format: ADME, organism-based; details: in vivo
[22] = Cmax in rat; format: ADME; details: in vivo
[23] = Clearance in mouse; format: ADME, organism-based; details: in vivo
[24] = Volume of distribution at steady state in rat; format: ADME; details: in vivo, read-out: Vdss
[25] = Volume of distribution at steady state in mouse; format: ADME, organism-based; details: in vivo, read-out: Vdss
[26] = Clearance in rat; format: ADME; details: in vivo
[27] = Unbound partition coefficient of the compound in rat incubated for 8 hrs; format: ADME; details: brain, read-out: K(p,uu,brain)
[28] = Unbound partition coefficient of the compound in mouse incubated for 8 hrs; format: ADME; details: brain, read-out: K(p,uu,brain)
[29] = Protein binding in cynomolgus monkey assessed as unbound fraction; format: ADME, Macaca fascicularis
[30] = Oral bioavailability in cynomolgus monkey; format: ADME, organism-based, Macaca fascicularis; details: in vivo, dose 10 mg/kg
[31] = Half life in po dosed cynomolgus monkey; format: ADME, organism-based, Macaca fascicularis; details: in vivo
[32] = Half life in iv dosed cynomolgus monkey; format: ADME, organism-based, Macaca fascicularis; details: in vivo
[33] = Cmax in cynomolgus monkey; format: ADME, Macaca fascicularis; details: in vivo
[34] = Volume of distribution at steady state in cynomolgus monkey; format: ADME, Macaca fascicularis; details: in vivo, read-out: Vdss
[35] = Clearance in cynomolgus monkey; format: ADME, Macaca fascicularis; details: in vivo, dose 1 mg/kg
[36] = Unbound partition coefficient of the compound in cynomolgus monkey incubated for 8 hrs; format: ADME, cell-free, Macaca fascicularis, Brain/Plasma; details: brain, read-out: K(p,uu,brain)

Chain of Muscarinic acetylcholine receptor M3 (P20309 whole entry): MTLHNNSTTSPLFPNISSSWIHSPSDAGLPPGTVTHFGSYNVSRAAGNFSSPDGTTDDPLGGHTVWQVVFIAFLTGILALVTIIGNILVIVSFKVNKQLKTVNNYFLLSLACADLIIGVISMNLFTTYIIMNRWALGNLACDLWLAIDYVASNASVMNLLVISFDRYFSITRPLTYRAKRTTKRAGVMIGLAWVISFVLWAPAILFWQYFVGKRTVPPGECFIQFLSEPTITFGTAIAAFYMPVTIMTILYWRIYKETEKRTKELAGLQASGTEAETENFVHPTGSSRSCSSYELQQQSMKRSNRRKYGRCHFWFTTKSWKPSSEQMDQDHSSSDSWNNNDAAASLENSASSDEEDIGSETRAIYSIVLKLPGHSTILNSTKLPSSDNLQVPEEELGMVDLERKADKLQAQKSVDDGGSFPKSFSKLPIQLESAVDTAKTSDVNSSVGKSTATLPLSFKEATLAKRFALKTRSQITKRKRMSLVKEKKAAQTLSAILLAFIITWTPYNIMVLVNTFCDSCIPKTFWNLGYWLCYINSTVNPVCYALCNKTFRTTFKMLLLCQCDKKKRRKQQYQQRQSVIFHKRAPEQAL

SMILES: O=C(C(O)C1CN2CCC1CC2)N1CCc2ccccc2[C@@H]1c1ccc(F)cc1 (some centres undefined)
- EC50 [1]: 895 nM

SMILES: O=C(OC1CN2CCC1CC2)N1CCc2ccccc2[C@@H]1c1ccc(F)c(F)c1 (some centres undefined)
- EC50 [1]: 2030 nM
- IC50 [2]: 10000 nM

SMILES: O=C(OC1CN2CCC1CC2)N1CCc2ccccc2[C@@H]1c1ccc(OC(F)(F)F)cc1 (some centres undefined)
- EC50 [1]: 2600 nM

SMILES: COc1ccc([C@H]2c3ccccc3CCN2C(=O)OC2CN3CCC2CC3)cc1 (some centres undefined)
- EC50 [1]: 2870 nM

SMILES: CC1(C)C(OC(=O)N2CCc3ccccc3[C@@H]2c2ccc(F)cc2)C2CCN1CC2 (some centres undefined)
- EC50 [1]: 574 nM

SMILES: O=C(OC1CN2CCC1CC2)N1CCc2ccccc2[C@@H]1c1ccc(F)cc1F (some centres undefined)
- EC50 [1]: 247 nM
- IC50 [2]: 9400 nM

SMILES: O=C(OC1CN2CCC1CC2)N1CCc2ccccc2[C@@H]1c1cccc(F)c1 (some centres undefined)
- EC50 [1]: 3550 nM

SMILES: O=S(=O)(NC1CN2CCC1CC2)N1CCc2ccccc2[C@@H]1c1ccc(F)cc1 (some centres undefined)
- EC50 [1]: > 10000 nM

SMILES: Fc1ccc([C@@H]2c3ccccc3CCN2CCC2CN3CCC2CC3)cc1 (some centres undefined)
- EC50 [1]: > 10000 nM

SMILES: O=C(OC1CN2CCC1CC2)N1CCc2ccccc2[C@@H]1c1ccc(OC2CC2)cc1 (some centres undefined)
- EC50 [1]: > 10000 nM

SMILES: O=C(CC1CN2CCC1CC2)N1CCc2ccccc2[C@@H]1c1ccc(F)cc1 (some centres undefined)
- EC50 [1]: 222 nM
- IC50 [2]: 30000 nM
- Papp A→B [3]: 2.68 ×10⁻⁶ cm/s

SMILES: C[C@]1(c2ccc(F)cc2)c2ccccc2CCN1C(=O)OC1CN2CCC1CC2 (some centres undefined)
- EC50 [1]: 3460 nM

SMILES: O=C(OC1CN2CCC1CC2)N1CCc2ccccc2[C@@H]1c1cccc(F)c1F (some centres undefined)
- EC50 [1]: 1110 nM

SMILES: CS(=O)(=O)c1ccc([C@H]2c3ccccc3CCN2C(=O)OC2CN3CCC2CC3)cc1 (some centres undefined)
- EC50 [1]: > 10000 nM

SMILES: O=C(OCCC12CCN(CC1)CC2)N1CCc2ccccc2[C@@H]1c1ccc(F)cc1
- EC50 [1]: > 10000 nM

SMILES: O=S(=O)(CC1CN2CCC1CC2)N1CCc2ccccc2[C@@H]1c1ccc(F)cc1 (some centres undefined)
- EC50 [1]: 1700 nM

SMILES: O=C(OC1CN2CCC1CC2)N1CCc2ccccc2[C@@H]1c1ccc(F)cc1 (some centres undefined)
- bioavailability [4]: 16%
- bioavailability [5]: 64%
- CLH [6]: 0.023 mL/min/kg
- CLH [7]: 0.0698 mL/min/kg
- fraction unbound [8]: 0.06
- EC50 [1]: 257 nM
- IC50 [2]: 17000 nM
- Papp A→B [3]: 7.59 ×10⁻⁶ cm/s
- solubility [9]: 1990 µM (≈ 757 µg/mL)
- fraction unbound [10]: 0.02
- fraction unbound [11]: 0.086
- fraction unbound [12]: 0.008
- fraction unbound [13]: 0.008
- half-life [14]: 29 min
- half-life [15]: 10 min
- half-life [16]: > 240 min
- half-life [17]: 4.1 min
- half-life [18]: 2.1 min
- half-life [19]: 2.1 min
- half-life [20]: 1.9 min
- Cmax [21]: 28 nM
- Cmax [22]: 37 nM
- clearance [23]: 44.2 mL/min/kg
- Vd [24]: 4.65 L/kg
- Vd [25]: 4.91 L/kg
- clearance [26]: 198 mL/min/kg
- Kp uu at 8 h [27]: 0.26
- Kp uu at 8 h [28]: 1.08

SMILES: O=C(NC1CN2CCC1CC2)C(=O)N1CCc2ccccc2[C@@H]1c1ccc(F)cc1 (some centres undefined)
- EC50 [1]: 1610 nM

SMILES: O=C(OC1CN2CCC1CC2)N1CCc2ccccc2[C@@H]1c1ccc(Cl)cc1 (some centres undefined)
- EC50 [1]: 339 nM
- IC50 [2]: 1480 nM

SMILES: O=C(NC1CN2CCC1CC2)N1CCc2ccccc2[C@@H]1c1ccc(F)cc1 (some centres undefined)
- EC50 [1]: 265 nM
- IC50 [2]: 10000 nM
- Papp A→B [3]: 0.95 ×10⁻⁶ cm/s
- solubility [9]: 5960 µM (≈ 2260 µg/mL)

SMILES: O=C(O[C@@H]1CN2CCC1CC2)N1CCc2ccccc2[C@@H]1c1ccccc1
- EC50 [1]: 1830 nM
- IC50 [2]: 733 nM

SMILES: O=C(OCC1CN2CCC1CC2)N1CCc2ccccc2[C@@H]1c1ccc(F)cc1 (some centres undefined)
- EC50 [1]: 1990 nM

SMILES: O=C(COC1CN2CCC1CC2)N1CCc2ccccc2[C@@H]1c1ccc(F)cc1 (some centres undefined)
- EC50 [1]: 811 nM

SMILES: CN(C(=O)N1CCc2ccccc2[C@@H]1c1ccc(F)cc1)C1CN2CCC1CC2 (some centres undefined)
- EC50 [1]: 1030 nM

SMILES: O=C(OCC12CCN(CC1)CC2)N1CCc2ccccc2[C@H]1c1ccc(F)cc1
- bioavailability [4]: 16%
- bioavailability [5]: 41%
- CLH [6]: 0.0397 mL/min/kg
- CLH [7]: 0.0318 mL/min/kg
- fraction unbound [8]: 0.086
- EC50 [1]: 146 nM
- fraction unbound [29]: 0.176
- Papp A→B [3]: 3.01 ×10⁻⁶ cm/s
- solubility [9]: 2670 µM (≈ 1050 µg/mL)
- fraction unbound [10]: 0.048
- fraction unbound [11]: 0.096
- fraction unbound [12]: 0.008
- fraction unbound [13]: 0.007
- half-life [14]: 17 min
- half-life [15]: 22 min
- half-life [16]: 198 min
- bioavailability [30]: 42%
- half-life [17]: 2.9 min
- half-life [18]: 5.2 min
- half-life [31]: 6.8 min
- half-life [19]: 2.2 min
- half-life [20]: 2.2 min
- half-life [32]: 6.4 min
- Cmax [21]: 30 nM
- Cmax [22]: 17 nM
- Cmax [33]: 32 nM
- clearance [23]: 51.8 mL/min/kg
- Vd [24]: 16.2 L/kg
- Vd [25]: 7.23 L/kg
- Vd [34]: 9.6 L/kg
- clearance [26]: 102 mL/min/kg
- clearance [35]: 20.7 mL/min/kg
- Kp uu at 8 h [27]: 0.4
- Kp uu at 8 h [28]: 0.09
- Kp uu at 8 h [36]: 0.33

SMILES: O=C(OC1CN2CCC1(F)CC2)N1CCc2ccccc2C1c1ccc(F)cc1 (single isomer, unassigned)
- EC50 [1]: 1250 nM

SMILES: O=C(O[C@H]1CN2CCC1CC2)N1CCc2ccccc2[C@@H]1c1ccccc1 [SOLIFENACIN]
- EC50 [1]: 1300 nM
- IC50 [2]: 24 nM

SMILES: O=C(OC1CN2CCC1CC2)N1CCc2ccccc2[C@H]1c1ccc(F)cc1 (some centres undefined)
- EC50 [1]: > 10000 nM
